The values that follow come from patent US20160280699A1, “SUBSTITUTED PHENYLALANINE DERIVATIVES” (BAYER PHARMA AKTIENGESELLSCHAFT, priority 2013, published 2016).

Each structure is given as a SMILES string. Where a name gives a salt, the structure may show the parent alone.

In experiment [1] the target is T1, human factor XIa (Homo sapiens, UniProt P03951).
T1 construct: purchased Kordia
In words: Measurement of FXIa inhibition (fluorogenic peptide substrate Boc-Glu(OBzl)-Ala-Arg-AMC). It is filed as biochemical. Conditions: factor XIa from Kordia, 15 min preincubation, 30 min at 22° C., fluorescence. The procedure:
The factor XIa inhibition of the substances according to the invention is determined using a biochemical test system which utilizes the reaction of a peptidic factor XIa substrate to determine the enzymatic activity of human factor XIa. Here, factor XIa cleaves from the peptic factor XIa substrate the C-terminal aminomethylcoumarin (AMC), the fluorescence of which is measured. The determinations are carried out in microtitre plates.
Test substances are dissolved in dimethyl sulphoxide and serially diluted in dimethyl sulphoxide (3000 μM to 0.0078 μM; resulting final concentrations in the test: 50 μM to 0.00013 μM). In each case 1 μl of the diluted substance solutions is placed into the wells of white microtitre plates from Greiner (384 wells). Subsequently, the following are added successively: 20 μl of assay buffer (50 mmol/l Tris buffer pH 7.4; 100 mmol/l sodium chloride; 5 mmol/l calcium chloride; 0.1% bovine serum albumin) and 20 μl of factor XIa from Kordia (0.45 nM in assay buffer). After 15 min of incubation, the enzyme reaction is started by addition of 20 μl of the factor XIa substrate Boc-Glu(OBzl)-Ala-Arg-AMC dissolved in assay buffer (10 μM in assay buffer) from Bachem, the mixture is incubated at room temperature (22° C.) for 30 min and fluorescence is then measured (excitation: 360 nm, emission: 460 nm). The measured emissions of the test batches with test substance are compared to those of control batches without test substance (only dimethyl sulphoxide instead of test substance in dimethyl sulphoxide), and IC50 values are calculated from the concentration/activity relationships.

The subject of experiment [2] is human and animal plasma. Description: Determination of anticoagulatory activity: activated partial thromboplastin time (aPTT) in plasma. It is filed as biochemical. Conditions: concentration of test substance which brings about a 1.5-fold extension of the aPTT, 37° C., C.K. Prest kit. The procedure:
The anticoagulatory activity of the test substances is determined in vitro in human and animal plasma (for example mouse, rat, rabbit, pig and dog plasma). To this end, blood is drawn off in a mixing ratio of sodium citrate/blood of 1:9 using a 0.11 molar sodium citrate solution as receiver. Immediately after the blood has been drawn off, it is mixed thoroughly and centrifuged at about 4000 g for 15 minutes. The supernatant is pipetted off.
The activated partial thromboplastin time (aPTT) is determined in the presence of varying concentrations of test substance or the corresponding solvent using a commercial test kit (C.K. Prest from Diagnostica Stago). The test compounds are incubated with the plasma and the PTT reagent (cephalin, kaolin) at 37° C. for 3 minutes. Coagulation is then started by addition of a 25 mM aqueous calcium chloride solution, and the time when coagulation occurs is determined. The concentration of test substance which brings about a 1.5-fold extension of the aPTT is determined Activity data from this test are listed in Table B below: […]

T1 sequence (P03951 388-625 limits assumed): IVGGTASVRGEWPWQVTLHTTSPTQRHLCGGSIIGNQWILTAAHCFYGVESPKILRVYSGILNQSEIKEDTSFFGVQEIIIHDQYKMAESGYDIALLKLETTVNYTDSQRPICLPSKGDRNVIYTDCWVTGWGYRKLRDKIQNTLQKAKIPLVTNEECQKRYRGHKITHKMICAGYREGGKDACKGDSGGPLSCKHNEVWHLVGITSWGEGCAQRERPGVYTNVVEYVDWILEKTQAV
T1 sequence (P03951 19-387 partner limits assumed): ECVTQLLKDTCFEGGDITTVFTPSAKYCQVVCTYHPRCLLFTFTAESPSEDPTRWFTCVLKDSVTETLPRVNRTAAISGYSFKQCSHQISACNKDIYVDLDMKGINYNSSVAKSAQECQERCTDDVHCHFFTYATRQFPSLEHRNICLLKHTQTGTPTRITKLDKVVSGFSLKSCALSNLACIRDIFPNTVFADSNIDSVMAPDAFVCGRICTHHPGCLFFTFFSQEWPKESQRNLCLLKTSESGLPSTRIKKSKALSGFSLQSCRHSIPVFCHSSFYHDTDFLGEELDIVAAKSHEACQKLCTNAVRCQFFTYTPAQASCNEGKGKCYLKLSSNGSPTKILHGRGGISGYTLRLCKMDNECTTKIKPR

With `NC[C@H]1CC[C@H](C(=O)N[C@@H](Cc2ccc(-c3ccnc(N4CCOCC4)c3)cc2)C(=O)Nc2ccc(-c3nn[nH]n3)cc2)CC1` [Example 35, N-alpha-{[trans-4-(Aminomethyl)cyclohexyl]carbonyl}-4-[2-(morpholin-4-yl)pyridin-4-yl]-N-[4-(2H-tetrazol-5-yl)phenyl]-L-phenylalaninamide hydrochloride], the IC50 in experiment [1] is 5.5 nM. Besides, the “aPTT” value in experiment [2] came to 0.48 µmol/L.

In experiment [1], `NC[C@H]1CC[C@H](C(=O)N[C@@H](Cc2ccc(-c3cccnc3O)cc2)C(=O)Nc2ccc(-c3nn[nH]n3)cc2)CC1` [Example 37, N-alpha-{[trans-4-(Aminomethyl)cyclohexyl]carbonyl}-4-(2-hydroxypyridin-3-yl)-N-[4-(2H-tetrazol-5-yl)phenyl]-L-phenylalaninamide hydrochloride] yielded an IC50 of 5.3 nM. Besides, in experiment [2], the “aPTT” value is 0.26 µmol/L.

In turn, `CS(=O)(=O)c1cncc(-c2ccc(C[C@H](NC(=O)[C@H]3CC[C@H](CN)CC3)C(=O)Nc3ccc(-c4nn[nH]n4)cc3)cc2)c1` [Example 39, N-alpha-{[trans-4-(Aminomethyl)cyclohexyl]carbonyl}-4-[5-(methylsulphonyl)pyridin-3-yl]-N-[4-(2H-tetrazol-5-yl)phenyl]-L-phenylalaninamide hydrochloride] had an IC50 in experiment [1] of 15 nM. Further, the “aPTT” value in experiment [2] is 0.38 µmol/L.

The compound `NC[C@H]1CC[C@H](C(=O)N[C@@H](Cc2ccc(-c3cnc(N4CCCCC4)nc3O)cc2)C(=O)Nc2ccc(-c3nn[nH]n3)cc2)CC1` [Example 40, N-alpha-{[trans-4-(Aminomethyl)cyclohexyl]carbonyl}-4-[4-hydroxy-2-(piperidin-1-yl)pyrimidin-5-yl]-N-[4-(2H-tetrazol-5-yl)phenyl]-L-phenylalaninamide hydrochloride] returned an IC50 in experiment [1] of 2.6 nM. Besides, the “aPTT” value in experiment [2] came out at 0.08 µmol/L.

`Cc1cc(N2CCNCC2)ncc1-c1ccc(C[C@H](NC(=O)[C@H]2CC[C@H](CN)CC2)C(=O)Nc2ccc(-c3nn[nH]n3)cc2)cc1` [Example 41, N-alpha-{[trans-4-(Aminomethyl)cyclohexyl]carbonyl}-4-[4-methyl-6-(piperazin-1-yl)pyridin-3-yl]-N-[4-(2H-tetrazol-5-yl)phenyl]-L-phenylalaninamide hydrochloride] came in with an IC50 in experiment [1] of 3.2 nM. Moreover, the “aPTT” value in experiment [2] stood at 0.06 µmol/L.

Turning to `NC[C@H]1CC[C@H](C(=O)N[C@@H](Cc2ccc(-c3ccnc(N4CCOCC4)c3Cl)cc2)C(=O)Nc2ccc(-c3nn[nH]n3)cc2)CC1` [Example 43, N-alpha-{[trans-4-(Aminomethyl)cyclohexyl]carbonyl}-4-[3-chloro-2-(morpholin-4-yl)pyridin-4-yl]-N-[4-(2H-tetrazol-5-yl)phenyl]-L-phenylalaninamide hydrochloride], the IC50 in experiment [1] came to 1.8 nM. Moreover, the “aPTT” value in experiment [2] amounted to 0.37 µmol/L.

For the compound `NC[C@H]1CC[C@H](C(=O)N[C@@H](Cc2ccc(-c3ccc(N4CCOCC4)nc3)c(F)c2)C(=O)Nc2ccc(-c3nn[nH]n3)cc2)CC1` [Example 44, N-alpha-{[trans-4-(Aminomethyl)cyclohexyl]carbonyl}-3-fluoro-4-[6-(morpholin-4-yl)pyridin-3-yl]-N-[4-(2H-tetrazol-5-yl)phenyl]-L-phenylalaninamide hydrochloride], in experiment [1], the IC50 was 2 nM. The “aPTT” value in experiment [2] was 0.22 µmol/L.

With `CN(C)CCCOc1ccc(-c2ccc(C[C@H](NC(=O)[C@H]3CC[C@H](CN)CC3)C(=O)Nc3ccc(-c4nn[nH]n4)cc3)cc2F)cn1` [Example 45, N-alpha-{[trans-4-(Aminomethyl)cyclohexyl]carbonyl}-4-{6-[3-(dimethylamino)propoxy]pyridin-3-yl}-3-fluoro-N-[4-(2H-tetrazol-5-yl)phenyl]-L-phenylalaninamide hydrochloride], the IC50 in experiment [1] turned out to be 13 nM. The “aPTT” value in experiment [2] is 0.35 µmol/L.

`NC[C@H]1CC[C@H](C(=O)N[C@@H](Cc2ccc(-c3ccnc(N4CCOCC4)c3F)cc2)C(=O)Nc2ccc(-c3nn[nH]n3)cc2)CC1` [Example 46, N-alpha-{[trans-4-(Aminomethyl)cyclohexyl]carbonyl}-4-[3-fluoro-2-(morpholin-4-yl)pyridin-4-yl]-N-[4-(2H-tetrazol-5-yl)phenyl]-L-phenylalaninamide hydrochloride] had an IC50 in experiment [1] of 3.7 nM. In addition, the “aPTT” value in experiment [2] turned out to be 0.45 µmol/L.

`Cc1cc(N2CCNCC2)ncc1-c1ccc(C[C@H](NC(=O)[C@H]2CC[C@H](CN)CC2)C(=O)Nc2ccc(-c3nn[nH]n3)c(F)c2)cc1` [Example 47, N-alpha-{[trans-4-(Aminomethyl)cyclohexyl]carbonyl}-N-[3-fluoro-4-(2H-tetrazol-5-yl)phenyl]-4-[4-methyl-6-(piperazin-1-yl)pyridin-3-yl]-L-phenylalaninamide hydrochloride] came in with an IC50 in experiment [1] of 1.1 nM. Moreover, the “aPTT” value in experiment [2] turned out to be 0.08 µmol/L.

With `Cc1cc(N2CCNCC2)ncc1-c1ccc(C[C@H](NC(=O)[C@H]2CC[C@H](CN)CC2)C(=O)Nc2ccc(-c3nnc(Cl)[nH]3)cc2)cc1` [Example 48, N-alpha-{[trans-4-(Aminomethyl)cyclohexyl]carbonyl}-N-[4-(3-chloro-4H-1,2,4-triazol-5-yl)phenyl]-4-[4-methyl-6-(piperazin-1-yl)pyridin-3-yl]-L-phenylalaninamide hydrochloride], half-maximal inhibition in experiment [1] (IC50) required 3.5 nM. Also, in experiment [2], the “aPTT” value is 0.11 µmol/L.

Take `NC[C@H]1CC[C@H](C(=O)N[C@@H](Cc2ccc(-c3cncc(N)c3)cc2)C(=O)Nc2ccc(-c3nnn[nH]3)cc2)CC1` [Example 49, N-alpha-{[trans-4-(Aminomethyl)cyclohexyl]carbonyl}-4-(5-aminopyridin-3-yl)-N-[4-(1H-tetrazol-5-yl)phenyl]-L-phenylalaninamide hydrochloride]: in experiment [1], the IC50 amounted to 3.2 nM. Further, the “aPTT” value in experiment [2] amounted to 0.14 µmol/L.

With `NC[C@H]1CC[C@H](C(=O)N[C@@H](Cc2ccc(-c3cccnc3C(F)(F)F)cc2)C(=O)Nc2ccc(-c3nnn[nH]3)cc2)CC1` [Example 50, N-alpha-{[trans-4-(Aminomethyl)cyclohexyl]carbonyl}-N-[4-(1H-tetrazol-5-yl)phenyl]-4-[2-(trifluoromethyl)pyridin-3-yl]-L-phenylalaninamide hydrochloride], in experiment [1], the IC50 stood at 1.3 nM. For the same compound, the “aPTT” value in experiment [2] is 0.16 µmol/L.

With `Cc1nc(N)ccc1-c1ccc(C[C@H](NC(=O)[C@H]2CC[C@H](CN)CC2)C(=O)Nc2ccc(-c3nnn[nH]3)cc2)cc1` [Example 51, N-alpha-{[trans-4-(Aminomethyl)cyclohexyl]carbonyl}-4-(6-amino-2-methylpyridin-3-yl)-N-[4-(1H-tetrazol-5-yl)phenyl]-L-phenylalaninamide hydrochloride], the IC50 in experiment [1] stood at 3.7 nM. For the same compound, the “aPTT” value in experiment [2] stood at 0.19 µmol/L.

`NC[C@H]1CC[C@H](C(=O)N[C@@H](Cc2ccc(-c3cncc(S(=O)(=O)NC4CCNCC4)c3)cc2)C(=O)Nc2ccc(-c3nnn[nH]3)cc2)CC1` [Example 52, N-alpha-{[trans-4-(Aminomethyl)cyclohexyl]carbonyl}-4-[5-(piperidin-4-ylsulphamoyl)pyridin-3-yl]-N-[4-(1H-tetrazol-5-yl)phenyl]-L-phenylalaninamide hydrochloride] yielded an IC50 in experiment [1] of 6.9 nM. Also, in experiment [2], the “aPTT” value came to 0.21 µmol/L.

One may read the IC50 as the concentration that inhibits the measured activity by half. Read a low IC50 as inhibition by little substance.
